Laboratory results from BindingDB's records for PubMed 32163814 (n/a, 2020).

Legend:
Histone deacetylase 6 [1] = target: T1, Histone deacetylase 6 (Homo sapiens, UniProt Q9UBN7); assay: Inhibition of human HDAC6 using fluorogenic as substrate measured after 30 mins by fluorescence based analysis
T1 sequence (Q9UBN7 whole entry): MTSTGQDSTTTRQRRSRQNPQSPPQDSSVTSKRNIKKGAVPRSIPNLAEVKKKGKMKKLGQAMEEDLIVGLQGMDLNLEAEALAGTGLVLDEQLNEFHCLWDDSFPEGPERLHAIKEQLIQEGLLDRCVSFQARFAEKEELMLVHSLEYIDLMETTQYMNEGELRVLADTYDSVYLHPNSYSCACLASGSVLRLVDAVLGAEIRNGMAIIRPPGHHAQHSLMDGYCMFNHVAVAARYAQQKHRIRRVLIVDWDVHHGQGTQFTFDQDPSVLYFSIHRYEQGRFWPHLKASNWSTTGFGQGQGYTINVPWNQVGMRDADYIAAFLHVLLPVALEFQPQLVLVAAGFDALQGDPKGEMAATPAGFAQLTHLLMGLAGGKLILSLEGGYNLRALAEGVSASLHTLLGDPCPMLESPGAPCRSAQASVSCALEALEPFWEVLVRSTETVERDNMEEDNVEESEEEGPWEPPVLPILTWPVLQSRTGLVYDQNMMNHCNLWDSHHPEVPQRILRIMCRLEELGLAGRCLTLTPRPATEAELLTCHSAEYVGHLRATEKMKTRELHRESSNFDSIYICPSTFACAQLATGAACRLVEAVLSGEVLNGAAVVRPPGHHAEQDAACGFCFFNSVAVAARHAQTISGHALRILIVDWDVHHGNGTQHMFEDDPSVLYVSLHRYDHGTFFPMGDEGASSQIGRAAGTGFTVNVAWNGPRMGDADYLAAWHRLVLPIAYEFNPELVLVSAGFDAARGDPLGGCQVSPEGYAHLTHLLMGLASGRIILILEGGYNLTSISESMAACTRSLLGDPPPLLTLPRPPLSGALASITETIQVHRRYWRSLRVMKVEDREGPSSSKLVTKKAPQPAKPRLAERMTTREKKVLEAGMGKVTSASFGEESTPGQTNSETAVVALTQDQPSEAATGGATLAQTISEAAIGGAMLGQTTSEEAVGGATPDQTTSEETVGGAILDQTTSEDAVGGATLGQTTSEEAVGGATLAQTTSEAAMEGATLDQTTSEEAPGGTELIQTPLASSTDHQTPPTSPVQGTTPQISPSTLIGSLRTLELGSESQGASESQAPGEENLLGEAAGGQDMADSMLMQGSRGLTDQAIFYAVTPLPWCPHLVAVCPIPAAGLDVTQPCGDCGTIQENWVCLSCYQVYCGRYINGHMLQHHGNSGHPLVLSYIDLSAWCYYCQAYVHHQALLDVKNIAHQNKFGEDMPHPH

Histone deacetylase 1 = Histone deacetylase 1 (Homo sapiens, UniProt Q13547); assay: Inhibition of human HDAC1 using fluorogenic as substrate measured after 30 mins by fluorescence based analysis
Chain of Histone deacetylase 1 (Q13547 whole entry): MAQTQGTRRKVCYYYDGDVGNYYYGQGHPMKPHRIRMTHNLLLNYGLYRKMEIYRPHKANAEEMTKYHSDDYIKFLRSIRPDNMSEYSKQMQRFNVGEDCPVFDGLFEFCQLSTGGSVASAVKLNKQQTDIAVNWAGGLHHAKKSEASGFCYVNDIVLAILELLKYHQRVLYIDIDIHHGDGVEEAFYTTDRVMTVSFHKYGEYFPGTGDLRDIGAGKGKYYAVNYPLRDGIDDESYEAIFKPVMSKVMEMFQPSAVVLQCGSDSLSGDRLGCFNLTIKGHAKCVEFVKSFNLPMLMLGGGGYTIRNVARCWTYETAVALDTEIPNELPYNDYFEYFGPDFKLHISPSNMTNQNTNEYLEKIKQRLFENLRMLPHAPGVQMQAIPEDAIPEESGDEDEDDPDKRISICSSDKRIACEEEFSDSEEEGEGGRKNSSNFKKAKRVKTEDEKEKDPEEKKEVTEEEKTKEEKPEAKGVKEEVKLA

Histone deacetylase 2 = Histone deacetylase 2 (Homo sapiens, UniProt Q92769); assay: Inhibition of human HDAC2 using fluorogenic as substrate measured after 30 mins by fluorescence based analysis
Chain of Histone deacetylase 2 (Q92769 whole entry): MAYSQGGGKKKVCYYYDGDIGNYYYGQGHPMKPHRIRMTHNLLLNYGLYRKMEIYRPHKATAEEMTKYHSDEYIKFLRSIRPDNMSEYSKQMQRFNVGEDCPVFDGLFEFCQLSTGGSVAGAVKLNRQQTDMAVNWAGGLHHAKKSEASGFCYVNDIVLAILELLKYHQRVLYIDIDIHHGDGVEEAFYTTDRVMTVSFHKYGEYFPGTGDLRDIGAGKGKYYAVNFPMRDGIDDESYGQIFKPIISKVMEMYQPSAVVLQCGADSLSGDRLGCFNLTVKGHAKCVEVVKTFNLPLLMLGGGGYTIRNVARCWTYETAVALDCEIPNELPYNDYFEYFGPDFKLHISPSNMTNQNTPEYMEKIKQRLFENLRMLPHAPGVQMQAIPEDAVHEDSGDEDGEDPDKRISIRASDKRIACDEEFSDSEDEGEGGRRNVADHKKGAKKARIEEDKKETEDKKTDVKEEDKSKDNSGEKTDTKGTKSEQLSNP

Histone deacetylase 3 = Histone deacetylase 3 (Homo sapiens, UniProt O15379); assay: Inhibition of human HDAC3 using fluorogenic as substrate measured after 30 mins by fluorescence based analysis
Chain of Histone deacetylase 3 (O15379 whole entry): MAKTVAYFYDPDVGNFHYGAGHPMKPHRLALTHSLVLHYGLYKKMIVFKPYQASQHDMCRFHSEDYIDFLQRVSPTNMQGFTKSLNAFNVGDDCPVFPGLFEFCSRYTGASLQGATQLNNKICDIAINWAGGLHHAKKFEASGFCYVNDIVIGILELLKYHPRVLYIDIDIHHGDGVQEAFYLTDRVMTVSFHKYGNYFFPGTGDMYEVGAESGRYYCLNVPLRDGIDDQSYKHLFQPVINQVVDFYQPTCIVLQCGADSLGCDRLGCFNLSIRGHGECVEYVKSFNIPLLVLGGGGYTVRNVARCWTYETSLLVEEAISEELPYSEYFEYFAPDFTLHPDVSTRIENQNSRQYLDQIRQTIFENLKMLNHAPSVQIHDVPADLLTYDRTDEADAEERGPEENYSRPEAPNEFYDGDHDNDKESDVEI

Histone deacetylase 6 [2] = target: T1, Histone deacetylase 6; assay: Inhibition of human recombinant HDAC6 using fluorogenic HDAC substrate measured after 20 mins by fluorescence assay

| IC50 (Histone deacetylase 6 [1]) [nM] | IC50 (Histone deacetylase 1) [nM] | IC50 (Histone deacetylase 2) [nM] | IC50 (Histone deacetylase 3) [nM] | IC50 (Histone deacetylase 6 [2]) [nM] | Structure (SMILES) |
| --- | --- | --- | --- | --- | --- |
| 376 | 29 | 244 | – | – | O=C(NO)c1ccc(NC(=O)[C@@H](NC(=O)c2ccc3ccccc3c2)c2ccccc2)cc1 |
| 295 | 31 | 171 | 23 | – | O=C(NO)c1ccc(NC(=O)[C@@H](NS(=O)(=O)c2cccc3ccccc23)c2ccccc2)cc1 |
| 196 | – | 89 | – | – | O=C(NO)c1ccc(NC(=O)[C@@H](NC(=O)c2cccc(Br)c2)c2ccccc2)cc1 |
| – | – | – | – | 294 | COc1ccccc1NC(=O)N[C@H](C(=O)Nc1ccc(C(=O)NO)cc1)c1ccccc1 |
| 366 | – | 107 | – | – | CN(C)c1cccc2c(S(=O)(=O)N[C@H](C(=O)Nc3ccc(C(=O)NO)cc3)c3ccccc3)cccc12 |
